Test results reported in patent publication US12479843B2, “Spiro ring-containing quinazoline compounds” (WIGEN BIOMEDICINE TECHNOLOGY (SHANGHAI) CO., LTD., priority 2019, dated 2025).

Legend:
H358 cells = assay: Antiproliferative activity against H358 cells (Cell Titer Glow, ultra-low attachment plate); format: cell-based; conditions: Homo sapiens, NCI-H358, 72 h, 96-well ultra-low attachment plate, three days after addition of compound, Cell Titer Glow
Protocol: 2500 H358 cells were seeded in a 96-well ultra-low attachment plate (corning, 7007). After one day of growth, a serially diluted compound (a maximum concentration of 5 μM, 5-fold dilution, a total of five doses) was added. Three days after the addition of the compound, Cell Titer Glow (Promega, G9681) was added to evaluate pellet growth, and the IC50 value was calculated.

pERK level in H358 cells = assay: pERK and ERK protein content assay in H358 cells (ELISA); format: cell-based; conditions: Homo sapiens, NCI-H358, compound 1 μM, 24 h, pERK/ERK ratio compared with DMSO group, read-out: Inhibition rate (%) of pERK level
Procedure, shortened: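 Percent inhibition of pERK relative to DMSO, from the ELISA pERK/ERK ratio in lysed H358 cells. Compound applied at 1 μM for 24 h after one day of growth.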

Structure (SMILES) | IC50 (H358 cells) | inhibition at 1 µM (pERK level in H358 cells)
C=C(F)C(=O)N1CC2(CCN(c3nc(N4CCC5(CC4)CN(CCOC)C5)nc4c(OCC(F)(F)F)c(-c5c(C)ccc6[nH]ncc56)c(C5CC5)cc34)CC2)C1 [Compound 104] | 300 to 1000 nM | 50 to 90%
C=CC(=O)N1CC2(CCN(c3nc(N4CCC5(CCN(CCOC)C5)CC4)nc4c(OCC(F)(F)F)c(-c5c(C)ccc6[nH]ncc56)c(C5CC5)cc34)CC2)C1 [Compound 105] | < 300 nM | > 90%
C=C(F)C(=O)N1CC2(CCN(c3nc(N4CCC5(CCN(CCOC)C5)CC4)nc4c(OCC(F)(F)F)c(-c5c(C)ccc6[nH]ncc56)c(C5CC5)cc34)CC2)C1 [Compound 106] | 300 to 1000 nM | 50 to 90%
C=CC(=O)N1CC2(CCN(c3nc(N4CCC5(CCN(CCOC)CC5)CC4)nc4c(OCC(F)(F)F)c(-c5c(C)ccc6[nH]ncc56)c(C5CC5)cc34)CC2)C1 [Compound 107] | 300 to 1000 nM | 50 to 90%
C=C(F)C(=O)N1CC2(CCN(c3nc(N4CCC5(CCN(CCOC)CC5)CC4)nc4c(OCC(F)(F)F)c(-c5c(C)ccc6[nH]ncc56)c(C5CC5)cc34)CC2)C1 [Compound 108] | 300 to 1000 nM | 50 to 90%
C=CC(=O)N1CC2(CCN(c3nc(OC4CN(C)C4)nc4c(OCC(F)(F)F)c(-c5c(C)ccc6[nH]ncc56)c(C5CC5)cc34)CC2)C1 [Compound 109] | < 300 nM | > 90%
C=C(F)C(=O)N1CC2(CCN(c3nc(OC4CN(C)C4)nc4c(OCC(F)(F)F)c(-c5c(C)ccc6[nH]ncc56)c(C5CC5)cc34)CC2)C1 [Compound 110] | < 300 nM | > 90%
C=CC(=O)N1CC2(CCN(c3nc(OC4CN(C5COC5)C4)nc4c(OCC(F)(F)F)c(-c5c(C)ccc6[nH]ncc56)c(C5CC5)cc34)CC2)C1 [Compound 111] | < 300 nM | > 90%
C=C(F)C(=O)N1CC2(CCN(c3nc(OC4CN(C5COC5)C4)nc4c(OCC(F)(F)F)c(-c5c(C)ccc6[nH]ncc56)c(C5CC5)cc34)CC2)C1 [Compound 112] | 300 to 1000 nM | 50 to 90%
C=CC(=O)N1CC2(CCN(c3nc(OC4CN(CCOC)C4)nc4c(OCC(F)(F)F)c(-c5c(C)ccc6[nH]ncc56)c(C5CC5)cc34)CC2)C1 [Compound 113] | < 300 nM | > 90%
C=C(F)C(=O)N1CC2(CCN(c3nc(OC4CN(CCOC)C4)nc4c(OCC(F)(F)F)c(-c5c(C)ccc6[nH]ncc56)c(C5CC5)cc34)CC2)C1 [Compound 114] | < 300 nM | > 90%
C=CC(=O)N1CC2(CCN(c3nc(OC[C@@H]4COCCN4C)nc4c(OCC(F)(F)F)c(-c5c(C)ccc6[nH]ncc56)c(C5CC5)cc34)CC2)C1 [Compound 115] | 300 to 1000 nM | 50 to 90%
C=C(F)C(=O)N1CC2(CCN(c3nc(OC[C@@H]4COCCN4C)nc4c(OCC(F)(F)F)c(-c5c(C)ccc6[nH]ncc56)c(C5CC5)cc34)CC2)C1 [Compound 116] | 300 to 1000 nM | 50 to 90%
C=CC(=O)N1CC2(CCN(c3nc(OC[C@@H]4COCCN4CCOC)nc4c(OCC(F)(F)F)c(-c5c(C)ccc6[nH]ncc56)c(C5CC5)cc34)CC2)C1 [Compound 117] | < 300 nM | > 90%
C=C(F)C(=O)N1CC2(CCN(c3nc(OC[C@@H]4COCCN4CCOC)nc4c(OCC(F)(F)F)c(-c5c(C)ccc6[nH]ncc56)c(C5CC5)cc34)CC2)C1 [Compound 118] | < 300 nM | > 90%
C=CC(=O)N1CC2(CCN(c3nc(OC4C5CC4CN(CCOC)C5)nc4c(OCC(F)(F)F)c(-c5c(C)ccc6[nH]ncc56)c(C5CC5)cc34)CC2)C1 (stereo not drawn) [Compound 119] | < 300 nM | 50 to 90%
C=C(F)C(=O)N1CC2(CCN(c3nc(OC4C5CC4CN(CCOC)C5)nc4c(OCC(F)(F)F)c(-c5c(C)ccc6[nH]ncc56)c(C5CC5)cc34)CC2)C1 (stereo not drawn) [Compound 120] | 300 to 1000 nM | 50 to 90%
C=CC(=O)N1CC2(CCN(c3nc(OC4CC5CC4CN5CCOC)nc4c(OCC(F)(F)F)c(-c5c(C)ccc6[nH]ncc56)c(C5CC5)cc34)CC2)C1 (stereo not drawn) [Compound 121] | < 300 nM | 50 to 90%
C=C(F)C(=O)N1CC2(CCN(c3nc(OC4CC5CC4CN5CCOC)nc4c(OCC(F)(F)F)c(-c5c(C)ccc6[nH]ncc56)c(C5CC5)cc34)CC2)C1 (stereo not drawn) [Compound 122] | 300 to 1000 nM | 50 to 90%
C=CC(=O)N1CC2(CCN(c3nc(OC4CC5(C4)CN(C)C5)nc4c(OCC(F)(F)F)c(-c5c(C)ccc6[nH]ncc56)c(C5CC5)cc34)CC2)C1 [Compound 123] | < 300 nM | > 90%
C=C(F)C(=O)N1CC2(CCN(c3nc(OC4CC5(C4)CN(C)C5)nc4c(OCC(F)(F)F)c(-c5c(C)ccc6[nH]ncc56)c(C5CC5)cc34)CC2)C1 [Compound 124] | < 300 nM | > 90%
C=CC(=O)N1CC2(CCN(c3nc(OC4CC5(C4)CN(CCOC)C5)nc4c(OCC(F)(F)F)c(-c5c(C)ccc6[nH]ncc56)c(C5CC5)cc34)CC2)C1 [Compound 125] | < 300 nM | > 90%
C=C(F)C(=O)N1CC2(CCN(c3nc(OC4CC5(C4)CN(CCOC)C5)nc4c(OCC(F)(F)F)c(-c5c(C)ccc6[nH]ncc56)c(C5CC5)cc34)CC2)C1 [Compound 126] | < 300 nM | > 90%
C=CC(=O)N1CC2(CCN(c3nc(OC4CC5(C4)CN(C4COC4)C5)nc4c(OCC(F)(F)F)c(-c5c(C)ccc6[nH]ncc56)c(C5CC5)cc34)CC2)C1 [Compound 127] | < 300 nM | > 90%
C=C(F)C(=O)N1CC2(CCN(c3nc(OC4CC5(C4)CN(C4COC4)C5)nc4c(OCC(F)(F)F)c(-c5c(C)ccc6[nH]ncc56)c(C5CC5)cc34)CC2)C1 [Compound 128] | < 300 nM | > 90%
C=CC(=O)N1CC2(CCN(c3nc(OC4CC5(CCN(C)CC5)C4)nc4c(OCC(F)(F)F)c(-c5c(C)ccc6[nH]ncc56)c(C5CC5)cc34)CC2)C1 [Compound 129] | < 300 nM | > 90%

Continued, in another order:

IC50 (H358 cells) | Structure (SMILES) | inhibition at 1 µM (pERK level in H358 cells)
< 300 nM | C=C(F)C(=O)N1CC2(CCN(c3nc(OC4CC5(CCN(C)CC5)C4)nc4c(OCC(F)(F)F)c(-c5c(C)ccc6[nH]ncc56)c(C5CC5)cc34)CC2)C1 [Compound 130] | > 90%
< 300 nM | C=C(F)C(=O)N1CC2(CCN(c3nc(OC4CC5(CCN(CCOC)CC5)C4)nc4c(OCC(F)(F)F)c(-c5c(C)ccc6[nH]ncc56)c(C5CC5)cc34)CC2)C1 [Compound 132] | > 90%
< 300 nM | C=CC(=O)N1CC2(CCN(c3nc(OC4CC5(CCN(C6COC6)CC5)C4)nc4c(OCC(F)(F)F)c(-c5c(C)ccc6[nH]ncc56)c(C5CC5)cc34)CC2)C1 [Compound 133] | > 90%
< 300 nM | C=C(F)C(=O)N1CC2(CCN(c3nc(OC4CC5(CCN(C(C)CC)CC5)C4)nc4c(OCC(F)(F)F)c(-c5c(C)ccc6[nH]ncc56)c(C5CC5)cc34)CC2)C1 (stereo not drawn) [Compound 134] | > 90%
300 to 1000 nM | C=CC(=O)N1CC2(CCN(c3nc(OC4CCC5(CC4)CN(C)C5)nc4c(OCC(F)(F)F)c(-c5c(C)ccc6[nH]ncc56)c(C5CC5)cc34)CC2)C1 [Compound 135] | 50 to 90%
300 to 1000 nM | C=C(F)C(=O)N1CC2(CCN(c3nc(OC4CCC5(CC4)CN(C)C5)nc4c(OCC(F)(F)F)c(-c5c(C)ccc6[nH]ncc56)c(C5CC5)cc34)CC2)C1 [Compound 136] | 50 to 90%
< 300 nM | C=CC(=O)N1CC2(CCN(c3nc(OC4CCC5(CC4)CN(CCOC)C5)nc4c(OCC(F)(F)F)c(-c5c(C)ccc6[nH]ncc56)c(C5CC5)cc34)CC2)C1 [Compound 137] | > 90%
< 300 nM | C=C(F)C(=O)N1CC2(CCN(c3nc(OC4CCC5(CC4)CN(CCOC)C5)nc4c(OCC(F)(F)F)c(-c5c(C)ccc6[nH]ncc56)c(C5CC5)cc34)CC2)C1 [Compound 138] | > 90%
< 300 nM | C=C(F)C(=O)N1CC2(CCN(c3nc(N4CC(N(C)C)C4)nc4c(OCC(F)(F)F)c(-c5c(C)ccc6[nH]ncc56)c(C5CC5)cc34)CC2)C1 [Compound 139] | > 90%
< 300 nM | C=CC(=O)N1CC2(CCN(c3nc(N4CC(N(C)CCOC)C4)nc4c(OCC(F)(F)F)c(-c5c(C)ccc6[nH]ncc56)c(C5CC5)cc34)CC2)C1 [Compound 140] | > 90%
< 300 nM | C=C(F)C(=O)N1CC2(CCN(c3nc(N4CC(N(C)CCOC)C4)nc4c(OCC(F)(F)F)c(-c5c(C)ccc6[nH]ncc56)c(C5CC5)cc34)CC2)C1 [Compound 141] | > 90%
< 300 nM | C=C(F)C(=O)N1CC2(CCN(c3nc(N4CC(N5CCC5)C4)nc4c(OCC(F)(F)F)c(-c5c(C)ccc6[nH]ncc56)c(C5CC5)cc34)CC2)C1 [Compound 143] | > 90%
< 300 nM | C=CC(=O)N1CC2(CCN(c3nc(N4CC(N5CC(OC)C5)C4)nc4c(OCC(F)(F)F)c(-c5c(C)ccc6[nH]ncc56)c(C5CC5)cc34)CC2)C1 [Compound 144] | > 90%
< 300 nM | C=C(F)C(=O)N1CC2(CCN(c3nc(N4CC(N5CC(OC)C5)C4)nc4c(OCC(F)(F)F)c(-c5c(C)ccc6[nH]ncc56)c(C5CC5)cc34)CC2)C1 [Compound 145] | > 90%
< 300 nM | C=CC(=O)N1CC2(CCN(c3nc(N4CC(N5CCOCC5)C4)nc4c(OCC(F)(F)F)c(-c5c(C)ccc6[nH]ncc56)c(C5CC5)cc34)CC2)C1 [Compound 146] | > 90%
< 300 nM | C=C(F)C(=O)N1CC2(CCN(c3nc(N4CC(N5CCOCC5)C4)nc4c(OCC(F)(F)F)c(-c5c(C)ccc6[nH]ncc56)c(C5CC5)cc34)CC2)C1 [Compound 147] | > 90%
